Source: article PMC5592639 (ACS combinatorial science, 2016)

Experiments:
Assay type in all cases: cell-based
[1] = test system: normal human fibroblasts NHFB; assay: Cytotoxicity against normal human fibroblasts; conditions: Fibroblast
[2] = test system: H460TaxR (paclitaxel-resistant human non-small cell lung carcinoma cells); assay: Cytotoxicity against H460TaxR; conditions: H460/TaxR
[3] = test system: H460 (human non-small cell lung carcinoma cells); assay: Cytotoxicity against H460; conditions: NCI-H460

Structure (SMILES): CC(=O)O[C@H]1C(=O)[C@@]2(C)[C@H]([C@H](OC(=O)c3ccccc3)[C@]3(O)C[C@H](OC(=O)[C@H](O)[C@@H](NC(=O)c4ccccc4)c4ccccc4)C(C)=C1C3(C)C)[C@]1(OC(C)=O)CO[C@@H]1C[C@@H]2O [PTX, paclitaxel]
- EC50 [1]: 50 ± 30 nM
- EC50 [2]: 800 ± 400 nM
- EC50 [3]: 6 ± 2 nM
